In the assay the test system is aminopeptidase M (Ap). Put plainly: Ap-catalyzed cleavage of H-Arg-AMC. The format is biochemical. The settings on record: read-out: KM (Ap-catalyzed cleavage); substrate of aminopeptidase M.

By Km is commonly meant the substrate concentration at which the rate is half of its maximum.

Regarding `Cc1cc(=O)oc2cc(NC(=O)[C@@H](N)CCCN=C(N)N)ccc12` [H-Arg-AMC], the Km was determined as 5 mM.

(Values after paper PMC8154525 (Journal of the American Chemical Society, 2021).)
